Reference: ChEMBL document CHEMBL3727358, “Inhibitors of inducible form of 6-phosphofructose-2-kinase” (2014)

Legend:
[1] = molecular target: T1, 6-phosphofructo-2-kinase/fructose-2,6-bisphosphatase 3 (Homo sapiens, UniProt Q16875); assay: Inhibition of iPFK2 (unknown origin) assessed as reduction in enzyme-mediated fructose-6-phosphate phosphorylation by measuring ATP consumption incubated for 3 hrs by luciferase-luciferin-coupled chemiluminescence assay
[2] = molecular target: T1, 6-phosphofructo-2-kinase/fructose-2,6-bisphosphatase 3; assay: Inhibition of iPFK2 (unknown origin) assessed as reduction in enzyme-mediated fructose-6-phosphate phosphorylation by measuring NADH absorbance pre-incubated for 10 mins before ATP/substrate addition followed by incubation for 1 hr by UV-Visible spectrometry based iPFK-2/PPI-PFK coupled enzyme assay

T1 sequence (Q16875 whole entry): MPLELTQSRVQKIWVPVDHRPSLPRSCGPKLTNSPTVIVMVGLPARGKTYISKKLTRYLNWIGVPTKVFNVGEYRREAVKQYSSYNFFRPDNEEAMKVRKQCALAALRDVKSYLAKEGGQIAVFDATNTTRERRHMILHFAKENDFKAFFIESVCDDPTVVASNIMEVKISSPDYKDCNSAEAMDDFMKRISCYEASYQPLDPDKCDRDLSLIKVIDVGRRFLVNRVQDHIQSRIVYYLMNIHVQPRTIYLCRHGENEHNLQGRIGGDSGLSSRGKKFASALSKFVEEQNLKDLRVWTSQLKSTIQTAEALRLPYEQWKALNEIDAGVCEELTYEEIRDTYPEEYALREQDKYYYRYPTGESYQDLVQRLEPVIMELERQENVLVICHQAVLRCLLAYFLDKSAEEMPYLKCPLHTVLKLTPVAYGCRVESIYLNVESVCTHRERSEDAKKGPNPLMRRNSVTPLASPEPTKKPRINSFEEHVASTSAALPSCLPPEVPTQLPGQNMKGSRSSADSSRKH

Row | Compound | IC50 [1] [µM] | IC50 [2] [µM]
1 | Cc1nc(NC(C)c2cccc(OC(C)C(N)=O)c2)cc(-c2ccc3ncsc3c2)n1 (configuration not stated) | > 1 | 0.5
2 | Cc1nc(N[C@@H]2CCCc3ccccc32)cc(-c2cc3ccccc3s2)n1 | > 1 | 0.5
3 | Cc1nc(NC(C)c2cccc(-c3cnn(C)c3)c2)cc(-c2ccc(F)c(C)c2)n1 (configuration not stated) | > 1 | 0.5
4 | Cc1nc(NC(C)c2cccc(NC=O)c2)cc(-c2ccc3ncsc3c2)n1 (configuration not stated) | > 1 | > 1
5 | Cc1nc(N[C@@H](C)c2ccccc2)cc(-c2ccc3ncsc3c2)n1 | > 1 | > 1

Second part, the compound after the results:

Row | IC50 [1] [µM] | IC50 [2] [µM] | Compound
6 | 0.5 | 0.5 | Cc1nc(NC(C)c2cccc(-c3ccc(N(C)C)nc3)c2)cc(-c2ccc3ncsc3c2)n1 (configuration not stated)
7 | 0.5 | 0.5 | Cc1nc(NC(C)c2cccc(OCC(=O)NC3CCCCC3)c2)cc(-c2ccc3ncsc3c2)n1 (configuration not stated)
8 | > 1 | > 1 | Cc1nc(NC(C)c2cccc(-c3ccoc3)c2)cc(-c2ccc3ncsc3c2)n1 (configuration not stated)
9 | > 1 | 0.5 | CCc1coc2ccc(-c3cc(N[C@@H](C)c4cccc(Br)c4)nc(C)n3)cc12
10 | 0.5 | 0.5 | COc1ccc(-c2cc(NC(C)c3cccc(-c4cnn(C)c4)c3)nc(C)n2)cc1 (configuration not stated)
11 | > 1 | 0.5 | COc1ccc(-c2cccc(C(C)Nc3cc(-c4ccc5ncsc5c4)nc(C)n3)c2)cn1 (configuration not stated)
